# Laboratory results taken from PubChem BioAssay (NCI).
#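 1) Cells in 96-well plates. 2) Compound, 48 h, 5 concentrations. 3) Linear interpolation between surrounding doses. 4) Unreached endpoint = highest concentration. TGI denotes the concentration required for complete inhibition of growth.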
# Key:
# Assay in all cases: NCI-60 cell line screen, 48 h
# [1] = system: HOP-62 NSCLC
# [2] = system: IGROV1 ovarian
# [3] = system: MDA-N
# [4] = system: OVCAR-5 ovarian
# [5] = system: PC-3 prostate
# [6] = system: SK-MEL-5 melanoma
# [7] = system: SN12C renal
# [8] = system: SNB-19 CNS
# [9] = system: U251 CNS
# [10] = system: HL-60(TB) leukemia
SMILES,TGI [1] [µM],TGI [2] [µM],TGI [3] [µM],TGI [4] [µM],TGI [5] [µM],TGI [6] [µM],TGI [7] [µM],TGI [8] [µM],TGI [9] [µM],TGI [10] [µM]
CCOC(=O)CN=C1Nc2ccccc2C(=O)N2CSCC12 (centres undefined),> 100,> 100,> 100,> 100,> 100,> 100,> 100,> 100,> 100,–
N#CC(c1nc2ccccc2s1)c1nc(Cl)ncc1Br (centres undefined),> 100,> 100,> 100,> 100,–,43.5,> 100,> 100,> 100,–
Cc1ccc(S(=O)(=O)NC(=O)NC(Cc2ccccc2)C(=O)O)cc1 (centres undefined),> 100,> 100,–,> 100,> 100,> 100,> 100,> 100,> 100,> 100
CCOC(=O)c1[nH]cnc1/N=N/N(C)N,> 100,> 100,> 100,> 100,> 100,> 100,> 100,–,> 100,68.6
O=c1[nH]c(=S)c2cc3c(=S)[nH]c(=O)n(CCC(c4ccccc4)(c4ccccc4)c4ccccc4)c3nc2n1CCC(c1ccccc1)(c1ccccc1)c1ccccc1,> 100,–,> 100,> 100,> 100,> 100,> 100,> 100,> 100,–
CC(C)=CC(C)C(C(O)CCC1(c2ccoc2)OCCO1)S(=O)(=O)c1ccccc1 (centres undefined),> 100,> 100,> 100,> 100,> 100,> 100,> 100,> 100,> 100,–
O=c1c(/C=C/c2c(O)ccc3ccccc23)nnc2sc(-c3cccc([N+](=O)[O-])c3)nn12,> 100,> 100,> 100,> 100,46.5,–,> 100,–,> 100,13.5
Cc1c(NC(=S)N/N=C\C(=N/NC(=S)Nc2c(C)n(C)n(-c3ccccc3)c2=O)c2ccccc2)c(=O)n(-c2ccccc2)n1C,> 100,–,–,> 100,> 100,> 100,–,> 100,> 100,–
C\C=C/C=C/C=C/C(=O)O,> 100,> 100,–,> 100,–,> 100,> 100,> 100,> 100,> 100
